Laboratory results from ChEMBL document CHEMBL1201862, “PubChem BioAssay data set” (2004).
Activity calls are given as the source filed them.

How the values were obtained:
[1] = P. falciparum Dd2 growth inhibitors, dose response, SYBR Green, cherry-picked samples (AID 1159567); assay type: functional, cell-based
[2] = growth inhibition of yeast DHODH-expressing 3D7 parasites – SYBR Green, dry powder samples, dose response (AID 1159570); assay type: functional, cell-based;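 also: parasite growth measured after 72 hours of compound exposure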
[3] = toxicity to human HepG2 hepatoma cells – cell-based, plate reader, dry powder samples, cytotoxicity control, dose response (AID 1159569); assay type: functional;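 also: inhibitor potency with signal falling toward the positive control level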
[4] = growth inhibition of PfATP4-mutant resistant parasites – NITD609-resistant line, SYBR Green, dry powder, dose response (AID 1159571); assay type: functional, cell-based;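 also: parasites synchronized at ring stage by sorbitol before testing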
[5] = Dd2 malaria parasite growth inhibition potency – SYBR Green, dry powder samples, dose response (AID 1159566); assay type: functional, cell-based;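 also: potency for growth inhibition with lower SYBR green DNA signal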
[6] = viability loss in HepG2 hepatoma cells – cell-based, ATP luminescence, cherry-pick, activator set 2, cytotoxicity control, dose response (AID 1053143); assay type: functional
[7] = target: T1, Long-chain-fatty-acid--AMP ligase FadD28 (Mycobacterium tuberculosis, UniProt P9WQ59); test: Fluorescence polarization aasay to screen for inhibitors that compete for the binding of FadD28 to a bisubstrate Measured in Biochemical System Using Plate Reader - 2147-01_Inhibitor_Dose_CherryPick_Activity.; assay type: functional, Mycobacterium tuberculosis H37Rv
T1 sequence (P9WQ59 whole entry): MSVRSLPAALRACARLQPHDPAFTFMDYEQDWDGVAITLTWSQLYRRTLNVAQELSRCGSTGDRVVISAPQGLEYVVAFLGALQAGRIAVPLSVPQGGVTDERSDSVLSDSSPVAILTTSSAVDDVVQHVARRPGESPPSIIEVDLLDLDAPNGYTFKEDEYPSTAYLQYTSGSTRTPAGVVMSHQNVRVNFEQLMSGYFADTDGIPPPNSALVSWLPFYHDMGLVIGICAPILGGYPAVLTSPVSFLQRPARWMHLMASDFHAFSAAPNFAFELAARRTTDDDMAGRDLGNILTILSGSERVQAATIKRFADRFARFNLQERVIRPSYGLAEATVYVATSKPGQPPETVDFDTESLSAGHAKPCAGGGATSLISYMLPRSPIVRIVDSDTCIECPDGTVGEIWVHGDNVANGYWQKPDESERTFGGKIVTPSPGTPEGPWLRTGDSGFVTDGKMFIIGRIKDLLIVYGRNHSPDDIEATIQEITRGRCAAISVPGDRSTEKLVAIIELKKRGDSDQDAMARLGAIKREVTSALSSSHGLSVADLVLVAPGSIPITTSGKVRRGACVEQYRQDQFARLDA

[8] = cells; assay type: functional, cell-based; details: HEK-CNG
[9] = target: T2, Galanin receptor type 3 (Homo sapiens, UniProt O60755); test: Fluorescence-based cell-based primary high throughput dose response assay to identify antagonists of the Galanin Receptor 3 (GalR3).; assay type: functional
T2 sequence (O60755 whole entry): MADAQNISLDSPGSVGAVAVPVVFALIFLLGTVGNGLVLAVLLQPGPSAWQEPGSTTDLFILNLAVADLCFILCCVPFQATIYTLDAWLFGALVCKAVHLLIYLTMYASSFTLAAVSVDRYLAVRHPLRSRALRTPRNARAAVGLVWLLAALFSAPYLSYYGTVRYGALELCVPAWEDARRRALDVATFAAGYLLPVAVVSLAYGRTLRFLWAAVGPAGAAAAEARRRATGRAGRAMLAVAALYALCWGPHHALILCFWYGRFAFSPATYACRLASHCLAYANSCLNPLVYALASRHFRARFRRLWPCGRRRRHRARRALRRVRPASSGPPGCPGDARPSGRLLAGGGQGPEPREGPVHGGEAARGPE

[10] = toxicity to human hepatoma HepG2 cells – cell-based, cherry-picked samples, cytotoxicity control, dose response (AID 1159577); assay type: functional
[11] = T. cruzi growth inhibition in host cells, dose response, cell-based, plate reader, dry powder, set 2 (AID 652275); assay type: functional
[12] = OVCAR8 cell viability loss – plate reader, dry powder samples, PAX8 project, dose response (AID 743197); assay type: functional, cell-based; details: OVCAR-8
[13] = target: Paired box protein Pax-8 (Homo sapiens, UniProt Q06710); test: PAX8 transcriptional activity inhibition in RMG-I – RMG-I cells, luciferase, cherry-pick, dose response (AID 687027); assay type: functional, cell-based;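 also: luciferase reporter driven by Pax8 target thyroperoxidase promoter measured by SteadyGlo luminescence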
[14] = OVCAR-3 cell viability loss – plate reader, dry powder samples, PAX8 inhibitor project, dose response (AID 743044); assay type: functional, cell-based
[15] = blockade of melanocortin 4 receptor signaling – cell-based, plate reader, cherry pick, counter-screen for LGR2 antagonist project, dose response (AID 743444); assay type: functional;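 also: transfected HEK 293 cells stimulated with alpha-MSH peptide; potency of inhibitors of the alpha-MSH evoked signal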
[16] = blockers of bursicon-stimulated LGR2 cAMP reporter – cell-based, HEK293, CRE-luciferase reporter, cherry pick, set 2, dose response (AID 743343); assay type: functional;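 also: transfected cells were stimulated with diluted bursicon conditioned medium after compound addition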
[17] = viability loss in THP-1 monocytes – THP-1 cells, cytotoxicity control for Vif-APOBEC3G degradation inhibitor project, dose response (AID 1117359); assay type: functional; details: THP-1
[18] = target: T3, Coagulation factor XII (Homo sapiens, UniProt P00748); assay type: functional;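 also: activated factor XIIa alpha cleaving a fluorogenic AMC peptide substrate; inhibitor potency from loss of enzyme activity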
T3 sequence (P00748 whole entry): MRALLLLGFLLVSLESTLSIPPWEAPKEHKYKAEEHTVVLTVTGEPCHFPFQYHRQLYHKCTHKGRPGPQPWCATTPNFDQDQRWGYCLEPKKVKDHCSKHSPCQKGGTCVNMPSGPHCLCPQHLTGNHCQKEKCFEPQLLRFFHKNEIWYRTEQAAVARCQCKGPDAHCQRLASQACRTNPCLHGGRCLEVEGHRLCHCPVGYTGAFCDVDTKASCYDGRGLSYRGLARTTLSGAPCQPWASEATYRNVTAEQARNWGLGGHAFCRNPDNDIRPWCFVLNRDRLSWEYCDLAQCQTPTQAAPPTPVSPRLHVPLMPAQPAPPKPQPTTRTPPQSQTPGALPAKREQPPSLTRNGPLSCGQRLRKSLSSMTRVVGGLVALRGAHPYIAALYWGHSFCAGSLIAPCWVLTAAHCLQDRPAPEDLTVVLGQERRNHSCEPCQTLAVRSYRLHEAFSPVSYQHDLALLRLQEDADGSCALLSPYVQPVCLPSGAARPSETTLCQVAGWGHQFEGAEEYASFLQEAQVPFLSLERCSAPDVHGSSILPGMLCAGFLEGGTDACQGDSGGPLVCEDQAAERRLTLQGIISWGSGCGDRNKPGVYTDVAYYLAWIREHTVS

[19] = viability loss in human Jurkat cells – cell-based, luminescence, cytotoxicity control for P. falciparum gametocyte viability project, dose response (AID 1117277); assay type: functional;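 also: potency reflects loss of cellular ATP meaning fewer viable cells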
[20] = target: T4, Estrogen receptor (Homo sapiens, UniProt P03372);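 also: potency for inhibiting coactivator peptide recruitment to the receptor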
T4 sequence (P03372 whole entry): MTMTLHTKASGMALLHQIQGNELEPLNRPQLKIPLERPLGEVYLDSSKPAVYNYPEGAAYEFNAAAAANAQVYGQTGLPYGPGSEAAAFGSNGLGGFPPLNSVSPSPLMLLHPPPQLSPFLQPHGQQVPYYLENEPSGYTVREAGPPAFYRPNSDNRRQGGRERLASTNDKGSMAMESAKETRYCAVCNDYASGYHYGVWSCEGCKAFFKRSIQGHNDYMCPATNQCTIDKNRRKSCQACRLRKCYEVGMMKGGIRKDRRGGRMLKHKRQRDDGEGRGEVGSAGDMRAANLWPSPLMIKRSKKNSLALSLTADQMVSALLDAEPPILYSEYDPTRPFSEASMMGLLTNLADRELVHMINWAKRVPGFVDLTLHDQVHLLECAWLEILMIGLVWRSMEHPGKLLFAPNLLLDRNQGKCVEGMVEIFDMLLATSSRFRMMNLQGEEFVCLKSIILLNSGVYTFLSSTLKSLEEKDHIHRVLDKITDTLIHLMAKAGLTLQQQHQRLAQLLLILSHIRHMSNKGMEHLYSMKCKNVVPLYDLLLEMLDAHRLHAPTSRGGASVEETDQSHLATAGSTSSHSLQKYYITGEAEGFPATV

[21] = viability inhibitors of stage V gametocytes – luminescence, dose response (AID 1117278); assay type: functional, cell-based;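 also: gametocytes exposed to compound for 24 hours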
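For EC50 in this document: target is galanin receptor GalR3 read with a cAMP biosensor in HEK293 cells.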

Paired box protein Pax-8, sequence (Q06710 whole entry): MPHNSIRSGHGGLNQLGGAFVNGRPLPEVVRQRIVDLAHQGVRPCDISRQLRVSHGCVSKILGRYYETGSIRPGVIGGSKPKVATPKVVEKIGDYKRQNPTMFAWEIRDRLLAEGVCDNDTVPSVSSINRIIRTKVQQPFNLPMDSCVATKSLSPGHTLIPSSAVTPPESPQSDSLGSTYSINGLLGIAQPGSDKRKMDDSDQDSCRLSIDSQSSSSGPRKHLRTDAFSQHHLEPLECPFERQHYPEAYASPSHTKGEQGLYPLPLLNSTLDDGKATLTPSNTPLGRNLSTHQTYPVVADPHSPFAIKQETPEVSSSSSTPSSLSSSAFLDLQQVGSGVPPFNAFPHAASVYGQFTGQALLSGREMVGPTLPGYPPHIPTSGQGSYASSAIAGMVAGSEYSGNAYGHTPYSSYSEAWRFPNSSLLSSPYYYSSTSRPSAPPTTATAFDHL

In the case of `COc1ccc(C#Cc2ccc3c(c2)[C@H]2[C@H](CCN2Cc2nccs2)[C@H](CO)N3)cc1`, the AC50 [1] is reported as 2.09 µM (active), the AC50 [2] is reported as 2.95 µM (active) and the AC50 [3] is reported as 59.9 µM (active). For the same compound, the AC50 [4] was 1.87 µM (active) and the AC50 [5] was 1.76 µM (active).
For `Cn1/c(=N\C(=O)c2ccco2)sc2cccc(F)c21`, the AC50 [6] was 25.3 µM (active).
In the case of `COc1cccc(-c2ncc3ccccc3c2CO)c1`, the AC50 [7] is reported as 38 µM (active).
For `O=C1NC(=O)N(CCc2ccc(F)cc2)C(=O)/C1=C/NNC(=O)c1ccncc1`, the EC50 [8] was > 29.9 µM (inactive) and the IC50 [9] was > 29.9 µM (inactive).
For `C[C@@H]1CN([C@@H](C)CO)S(=O)(=O)c2ccc(C#Cc3ccccc3)cc2O[C@H]1CN(C)C(=O)C1CC1`, the AC50 [1] was 4.38 µM (active) and the AC50 [10] was > 39 µM (inactive).
For `CC(C)N1CC2(CN(Cc3ccc(F)cc3)C2)Oc2c(NC(=O)c3ccncc3)cccc2C1=O`, the AC50 [11] was 0.876 µM (active).
For `C[C@@H]1CN([C@H](C)CO)C(=O)c2cc(NC(=O)Nc3ccc(C(F)(F)F)cc3)ccc2O[C@@H](C)CCCCO[C@@H]1CN(C)C(=O)c1ccccc1`, the AC50 [12] was > 70 µM (inactive), the AC50 [13] was 5.42 µM (active) and the AC50 [14] was 7.17 µM (active).
In the case of `COc1ccc(-c2cc(C(=O)N3CCOCC3)no2)cc1`, the AC50 [15] is reported as 8.26 µM (active) and the AC50 [16] is reported as 10.4 µM (active).
With `COc1ccc(OC)c(NC(=O)CC2C(=O)NCCN2C(=O)Nc2cccc(Cl)c2)c1` (stereo not drawn) the CC50 [17] was > 40 µM (active) and the IC50 [18] was > 50 µM (inactive).
For `CCCCCCSC1=C(C#N)C(=O)NC2(CCCCC2)S1`, the AC50 [7] was > 100 µM (inactive).
For `COc1ccccc1NC(=O)c1ccccc1NC(=O)c1cc(Cl)ccc1NC(=O)c1ccco1`, the IC50 [19] was > 83.3 µM (inactive), the IC50 [20] was 12.5 µM (active) and the IC50 [21] was > 109 µM (inactive).
